Here are results for 1 compound from paper PMC8820820, “Feasibility and safety of targeting mitochondria for cancer therapy – preclinical characterization of gamitrinib, a first-in-class, mitochondriaL-targeted small molecule Hsp90 inhibitor” (Cancer Biology & Therapy, 2022).

The test system of data set [1] is Caco-2 intestinal cells. The experiment in a line: Bidirectional Caco2 cell monolayer permeability. Conditions: Caco-2. On the procedure: Caco-2 and HEK293 cells were obtained from the American Type Culture Collection (ATCC, Manassas, VA) and grown in culture according to the supplier’s specifications. In some experiments, HEK293 cells were stably transfected with hERG cDNA, and polyclonal cultures were maintained in the presence of 250 µg/ml geneticin (G418).
Bidirectional Caco2 cell monolayer permeability. Caco2 cells (2x10^4/well) were seeded onto apical chambers of a 24-multiwell insert plate and incubated at 37°C in 5% CO2. After 21 d, the transepithelial electrical resistance (TEER) in ohms was read for each insert well as a quality control for monolayer integrity (>900 ohms or 300 ohms cm^2). The cell monolayers were incubated with 400 µL transport buffer on the apical (A) and 1.2 mL on the basolateral (B) sides for 30 min. After preincubation, dosing solution was added to the apical (400 µL, A-to-B, donor) or basolateral sides (1.2 mL, B-to-A, donor) or receiving buffer to the apical (400 µL, B-to-A, receiver) or basolateral sides (1.2 mL, A-to-B, receiver) for 90 min at 37°C in 5% CO2. […] Papp’A>B (nm/s) was calculated with Equation 1.
Papp Efflux Ratio (ER) was calculated with Equation 2.
ER=Papp,B>APapp,A>BEquation 2: […]
Propranolol (high permeability marker, non-P-gp substate) and digoxin (P-gp substrate) were used as controls.

The nature of data set [2]: Phase I, cytochrome P450-mediated human liver microsome metabolism. Particulars: 0.5 µM, human liver microsomes. Background: Microsomes from liver hold many membrane-bound enzymes, among them those of drug oxidation.
The target of data set [3] is T1, CYP2A6 (Homo sapiens, UniProt P11509).
T1 sequence (P11509 1-494): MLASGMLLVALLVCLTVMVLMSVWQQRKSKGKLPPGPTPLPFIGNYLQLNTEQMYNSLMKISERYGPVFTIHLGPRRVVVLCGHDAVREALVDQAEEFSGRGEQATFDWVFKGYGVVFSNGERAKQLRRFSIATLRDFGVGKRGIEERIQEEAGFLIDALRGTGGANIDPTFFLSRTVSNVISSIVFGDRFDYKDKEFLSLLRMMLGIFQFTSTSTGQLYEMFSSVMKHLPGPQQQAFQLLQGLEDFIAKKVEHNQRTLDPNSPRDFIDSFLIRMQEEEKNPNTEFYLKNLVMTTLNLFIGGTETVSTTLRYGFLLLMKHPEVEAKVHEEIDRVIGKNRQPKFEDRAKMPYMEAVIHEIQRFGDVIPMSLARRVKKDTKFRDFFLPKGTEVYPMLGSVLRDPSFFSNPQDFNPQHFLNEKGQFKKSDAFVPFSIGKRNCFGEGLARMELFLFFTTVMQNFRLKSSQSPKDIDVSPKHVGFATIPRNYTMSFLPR
Particulars: microsomes.
Description: CYP inhibition in liver microsomes. […] Samples were analyzed for metabolite formation by LC-MS/MS. The results were expressed using the peak area ratio of analyte to internal standard, based on the calibration curves.
Where Range=fitted uninhibited value, s=slope factor, x=inhibitor concentration, y=% control activity.

The target in data set [4] is T2, CYP1A2 (Homo sapiens, UniProt P05177).
T2 construct: tissue Bioreclamation IVT; host or cells: pooled human liver microsomes
T2 sequence (P05177 1-516): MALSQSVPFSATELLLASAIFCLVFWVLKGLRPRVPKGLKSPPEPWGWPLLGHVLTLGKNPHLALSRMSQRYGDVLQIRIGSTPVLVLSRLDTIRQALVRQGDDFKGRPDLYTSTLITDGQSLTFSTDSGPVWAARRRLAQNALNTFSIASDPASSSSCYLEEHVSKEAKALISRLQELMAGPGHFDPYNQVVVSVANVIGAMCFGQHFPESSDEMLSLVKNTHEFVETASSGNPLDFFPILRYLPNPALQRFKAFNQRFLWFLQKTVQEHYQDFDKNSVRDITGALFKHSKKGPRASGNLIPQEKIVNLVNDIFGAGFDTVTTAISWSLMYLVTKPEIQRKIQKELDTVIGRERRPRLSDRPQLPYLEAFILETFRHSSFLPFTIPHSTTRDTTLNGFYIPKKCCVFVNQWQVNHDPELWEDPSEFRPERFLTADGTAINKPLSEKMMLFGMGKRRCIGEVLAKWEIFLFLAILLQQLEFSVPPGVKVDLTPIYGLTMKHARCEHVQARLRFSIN
Description: CYP inhibition in liver microsomes. The class given is in vitro ADME. From the text: CYP inhibition in liver microsomes.

Data set [5] can be described thus: Toxicokinetics in rats, twice weekly IV for 29 d. The class given is in vivo, Sprague-Dawley rats. On the procedure: Ninety-six male and female Sprague-Dawley rats (6–7 weeks old) were received from Charles River Laboratories (Raleigh, NC) catheterized via a femoral vein prior to arrival. Animals were acclimated in individual stainless-steel cages with access to water and Certified Rodent Diet #2014 C (Envigo RMS) ad libitum for 6 d prior to study initiation. Environmental controls were set to maintain a temperature range of 20 to 26°C, a relative humidity range of 30 to 70%, eight or greater air changes/h, and a 12-h light/dark cycle. Animals were infused with sterile isotonic (0.9%) saline for a minimum of 4 d (0.20 mL/h for males or 0.15 mL/h for females) during the predose phase. At initiation of dosing, animals were 8 to 9 weeks old, and body weights ranged from 283 to 341 g for males and 188 to 238 g for females. Gamitrinib formulated as indicated above was administered by IV infusion on d 4, 8, 11, 15, 18, 22, 25, and 29 of the dosing phase at 1, 10, 25 mg/kg/dose and dose volume of 5 mL/kg. The vehicle control administered with the same schedule contained 2.5% DMSO, 0.125% polysorbate 80, 0.031% lecithin, 1.25% sucrose and 4.375% dextrose. Animals were checked twice daily throughout the duration of the study for mortality, abnormalities, and signs of pain or distress. Detailed observations were conducted for each animal up to two times during the predose phase and for each toxicity animal prior to dosing on d 1, 8, 15, 22, and 29 of the dosing phase and on d 1, 7, and 14 of the recovery phase. Blood samples were collected on d. 1, 4 and 29 of the dosing phase 5 min, 1 h and 24 h post-dose, maintained on chilled cryoracks and centrifuged within 1 h of collection. Tissue samples harvested from each animal were embedded in paraffin, sectioned, and slides were prepared and stained with hematoxylin and eosin.

Data set [6] has as its target hERG (Homo sapiens, UniProt Q12809).
Description: Patch clamp recording. […] For electrophysiology recording, a micropipette was pulled from borosilicate glass with the pipette tip resistance between 3 ~ 5 MΩ. For each experiment, polyclonal HEK293 cells stably transfected with hERG cDNA and maintained in 250 µg/ml Geneticin (G418) were plated on 35 mm dishes on the microscope stage and a commercial patch clamp amplifier was used for the whole cell recordings. The tail currents were evoked at 22°C once every 30 sec by a 3 sec-50 mV repolarizing pulse following a 2 sec +50 mV depolarizing pulse with a hold voltage of -80 mV. A 50 msec depolarized pulse to -50 mV at the beginning of the voltage protocol served as a baseline for calculating the amplitude of the peak tail current. […] The cells were kept in the test solution until the peak tail current was stable (<5% change) for ~5 sweeps or for a maximum of 6 min, whichever came first. Peak tail amplitudes were plotted as a function of the sweep number. […] The % inhibition of the test article was calculated from the following equation:
Data set [7] has as its target Nav1.5 (Homo sapiens, UniProt Q14524). The experiment in a line: Ion channel screening. The class given is cell-based. Particulars: 10 µM, pulse 26.
Description: Ion channel screening. […] The parameters measured were the maximum inward current evoked on stepping to -20 mV from the 1st and 26th pulse. Human Kv4.3/KChIP2 currents were evoked from a holding potential of -80 mV by a series of four 500 msec pulses to 0 mV using a 1000 msec interval between pulses. The parameter measured was the amplitude of the outward current 50 msec after the onset of the 4th voltage step to 0 mV. […] Human Kv1.5 currents were evoked by a single pulse from a holding potential of -80 mV to a potential of 0 mV for 4 sec before returning to -80 mV. The parameters measured were the maximum amplitude of outward currents evoked at the beginning of the voltage pulse and at the end of the voltage step from -80 mV to 0 mV. Human KCNQ1/minK currents were evoked by a single pulse delivered from a holding potential of -80 mV to +60 mV for 4 sec before returning to -80 mV. The parameter measured was the maximum outward current evoked on stepping to +60 mV from the holding potential of -80 mV. hERG currents were evoked by a three-pulse protocol where voltage was first stepped to +40 mV for two sec from a holding potential of –80 mV to inactivate hERG channels. […] The parameter measured was the maximum inward current evoked upon stepping to -110 mV from the holding potential of -30 mV. […]

Read-outs that look alike come from different tables or passages of the source.

hERG, sequence (Q12809 whole entry): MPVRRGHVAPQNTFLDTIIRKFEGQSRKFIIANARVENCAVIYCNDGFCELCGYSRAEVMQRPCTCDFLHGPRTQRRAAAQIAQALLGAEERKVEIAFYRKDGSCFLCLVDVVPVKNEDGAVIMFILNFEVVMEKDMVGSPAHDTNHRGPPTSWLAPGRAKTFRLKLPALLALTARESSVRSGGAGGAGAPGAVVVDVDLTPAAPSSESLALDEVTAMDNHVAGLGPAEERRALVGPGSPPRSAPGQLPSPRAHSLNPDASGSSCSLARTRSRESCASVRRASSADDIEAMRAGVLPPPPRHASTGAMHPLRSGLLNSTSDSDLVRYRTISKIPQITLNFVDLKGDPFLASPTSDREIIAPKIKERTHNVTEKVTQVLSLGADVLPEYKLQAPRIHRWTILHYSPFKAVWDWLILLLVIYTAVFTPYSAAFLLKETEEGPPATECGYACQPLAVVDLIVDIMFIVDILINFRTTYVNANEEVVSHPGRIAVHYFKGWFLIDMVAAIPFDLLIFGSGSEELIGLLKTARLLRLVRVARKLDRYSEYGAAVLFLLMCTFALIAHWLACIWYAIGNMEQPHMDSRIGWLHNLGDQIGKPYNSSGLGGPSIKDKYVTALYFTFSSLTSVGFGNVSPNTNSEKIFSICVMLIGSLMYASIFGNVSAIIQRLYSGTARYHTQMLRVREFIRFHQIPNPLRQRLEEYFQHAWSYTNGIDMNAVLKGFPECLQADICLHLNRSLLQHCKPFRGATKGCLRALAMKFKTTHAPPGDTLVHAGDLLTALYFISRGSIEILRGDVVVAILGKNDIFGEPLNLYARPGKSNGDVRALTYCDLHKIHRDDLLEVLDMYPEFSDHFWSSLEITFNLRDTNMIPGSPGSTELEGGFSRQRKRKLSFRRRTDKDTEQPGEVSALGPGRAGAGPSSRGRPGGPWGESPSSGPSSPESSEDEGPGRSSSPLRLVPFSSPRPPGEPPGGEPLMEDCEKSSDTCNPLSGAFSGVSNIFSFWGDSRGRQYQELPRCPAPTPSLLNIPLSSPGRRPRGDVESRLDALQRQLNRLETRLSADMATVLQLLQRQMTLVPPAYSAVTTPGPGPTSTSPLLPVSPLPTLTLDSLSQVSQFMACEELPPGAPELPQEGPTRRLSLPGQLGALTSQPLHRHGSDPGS
Nav1.5, sequence (Q14524 whole entry): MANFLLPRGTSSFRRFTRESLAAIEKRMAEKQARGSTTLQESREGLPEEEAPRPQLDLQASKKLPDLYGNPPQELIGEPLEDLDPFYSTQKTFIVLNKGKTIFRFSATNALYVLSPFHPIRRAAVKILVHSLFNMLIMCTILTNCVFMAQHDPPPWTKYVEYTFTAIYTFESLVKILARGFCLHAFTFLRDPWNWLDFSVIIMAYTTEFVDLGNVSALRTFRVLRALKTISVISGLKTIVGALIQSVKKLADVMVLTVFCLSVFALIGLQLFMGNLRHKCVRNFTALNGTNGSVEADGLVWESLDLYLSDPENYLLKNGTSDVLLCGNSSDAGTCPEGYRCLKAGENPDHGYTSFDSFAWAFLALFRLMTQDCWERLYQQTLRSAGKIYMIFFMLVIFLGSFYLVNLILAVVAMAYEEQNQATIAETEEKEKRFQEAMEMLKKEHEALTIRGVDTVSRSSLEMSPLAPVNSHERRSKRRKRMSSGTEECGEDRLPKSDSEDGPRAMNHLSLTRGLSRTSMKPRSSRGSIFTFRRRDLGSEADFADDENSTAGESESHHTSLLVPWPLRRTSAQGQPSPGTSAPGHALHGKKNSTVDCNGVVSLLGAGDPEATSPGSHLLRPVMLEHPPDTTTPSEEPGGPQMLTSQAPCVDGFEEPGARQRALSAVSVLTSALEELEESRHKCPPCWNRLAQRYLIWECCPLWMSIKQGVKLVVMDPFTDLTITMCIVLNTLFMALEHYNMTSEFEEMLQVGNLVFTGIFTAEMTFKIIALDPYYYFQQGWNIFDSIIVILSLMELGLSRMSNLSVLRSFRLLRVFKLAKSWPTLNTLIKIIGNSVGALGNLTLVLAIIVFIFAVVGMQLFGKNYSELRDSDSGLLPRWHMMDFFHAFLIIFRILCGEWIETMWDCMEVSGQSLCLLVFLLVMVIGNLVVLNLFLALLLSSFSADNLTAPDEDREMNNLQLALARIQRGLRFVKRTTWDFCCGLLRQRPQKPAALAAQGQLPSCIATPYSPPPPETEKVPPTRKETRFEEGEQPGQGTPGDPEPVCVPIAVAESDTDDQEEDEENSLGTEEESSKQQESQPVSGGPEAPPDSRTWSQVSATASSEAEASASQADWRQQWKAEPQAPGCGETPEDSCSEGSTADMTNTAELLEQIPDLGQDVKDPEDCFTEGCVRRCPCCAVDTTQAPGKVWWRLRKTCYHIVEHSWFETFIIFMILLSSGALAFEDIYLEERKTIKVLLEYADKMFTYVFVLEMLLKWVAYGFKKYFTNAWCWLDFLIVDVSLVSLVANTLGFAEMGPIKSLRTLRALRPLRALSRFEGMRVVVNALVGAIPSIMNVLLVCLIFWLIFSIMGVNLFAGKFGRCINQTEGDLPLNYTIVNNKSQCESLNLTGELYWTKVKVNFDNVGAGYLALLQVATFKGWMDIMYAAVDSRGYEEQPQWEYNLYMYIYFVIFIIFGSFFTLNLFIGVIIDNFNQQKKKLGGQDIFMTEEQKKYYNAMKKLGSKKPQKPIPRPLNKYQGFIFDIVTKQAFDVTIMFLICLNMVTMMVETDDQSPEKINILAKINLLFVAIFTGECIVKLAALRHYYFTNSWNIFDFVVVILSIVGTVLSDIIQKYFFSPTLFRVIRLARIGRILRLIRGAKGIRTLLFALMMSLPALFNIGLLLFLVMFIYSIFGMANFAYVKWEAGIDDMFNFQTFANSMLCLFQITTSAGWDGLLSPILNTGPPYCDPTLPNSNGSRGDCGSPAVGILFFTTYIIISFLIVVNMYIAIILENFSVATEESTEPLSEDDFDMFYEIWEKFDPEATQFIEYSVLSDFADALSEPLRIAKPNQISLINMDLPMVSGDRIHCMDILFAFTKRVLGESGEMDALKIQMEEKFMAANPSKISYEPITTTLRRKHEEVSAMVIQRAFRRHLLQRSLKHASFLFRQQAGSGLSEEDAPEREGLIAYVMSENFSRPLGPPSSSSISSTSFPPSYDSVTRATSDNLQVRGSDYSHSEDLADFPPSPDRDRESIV

For the compound `COC1C=CC=C(C)C(=O)NC2=CC(=O)C(NCCCCCC[P+](c3ccccc3)(c3ccccc3)c3ccccc3)=C(CC(C)CC(OC)C(O)C(C)C=C(C)C1OC(N)=O)C2=O.F[P-](F)(F)(F)(F)F` (stereo not drawn) [Gamitrinib], in data set [1], the “Papp Efflux Ratio (ER)” value is listed as 5.77; the “Papp, A>B” value came to 0.19 ×10⁻⁶ cm/s; the “Papp, B>A” value is 1.094 ×10⁻⁶ cm/s; the “Pexact Efflux Ratio” value amounted to 5.54. In data set [1], the “Pexact,A>B” value came out at 0.197 ×10⁻⁶ cm/s and the “Pexact,B>A” value was found to be 1.092 ×10⁻⁶ cm/s. Also, in data set [2], the “elimination rate constant (k)” value came to 0.041, the “half-life (t½)” value was found to be 16.7 min and the “intrinsic clearance (CLint)” value stood at 3.30 mL/min/g. For the same compound, the IC50 in data set [3] turned out to be 24 µM. The compound further registered an IC50 in data set [4] of 32.9 µM. Further, in data set [5] (Cmax and AUC0–24 d 4 vs d 29), the drug accumulation entry is “no drug accumulation after multiple doses”. Besides, in data set [5] (rat, in vivo, 1 mg/kg), the “AUC0–24” value is 174 ng·h/mL. For the same compound, the “AUC0–24” value in data set [5] (rat, in vivo, 10 mg/kg) was 1300 ng·h/mL. In data set [5] (rat, in vivo, iv, 25 mg/kg), this compound had a CLSS of 84.83 to 131.33 mL/min/kg and a VSS of 12.2 to 90.0 L/kg. In data set [6], this compound gave a concentration for half-maximal inhibition (IC50) of 3.5 µM. For the same compound, the “inhibition of hERG currents” value in data set [6] (0.5 µM) was −0.68 ± 3.95%. In addition, in data set [6] (5 µM), the “inhibition of hERG currents” value is reported as 65.95 ± 6.78%. For the same compound, in data set [6] (ratio), the “hERG IC50 over IC50 of inhibition of tumor growth in NCI 60-cell line screen” value is “up to 20 fold”. The “inhibition of Nav1.5 currents” value in data set [7] turned out to be 22.3 ± 5.3%.

Broadly, the IC50 is the midpoint of a concentration-inhibition curve. A high value points to lower potency.
